Experimental data from patent US5783557A, “THF-γ2 analogs and pharmaceutical compositions comprising them” (Yeda Research and Development Company Ltd at Weizmann …, priority 1993, dated 1998).
No end group written: not given here. *: point of attachment. iodo = iodine substituent on Tyr (iodo-Tyr), I*

Legend:
mouse spleen cells = experiment: ConA-induced IL-2 production; format: cell-based; parameters: key: +++: strong enhancement, as THF-γ2; ++ and +: medium and weak enhancement, lower than THF-γ2; ++ and +: medium and weak enhancement, lower than THF-γ2; --no activity; conditions: graded against THF-γ2; Example 1, section 1.1
Experimental: 1.1. ConA-Induced IL-2 Production
In this bioassay, the effect of THF-γ2 and its analogs in enhancing the secretion of ConA-induced IL-2 from murine spleen cells is determined.
1.1.1. Preparation of cells and preincubation with THF-γ2. Pooled spleen cells (10^7 cell/ml) from five female C3B6F1 (C3HeB/FeJ×C57BL/6J) mice (obtained from Jackson Labs, U.S.A.) aged 6-8 weeks are seeded in 24-well plates (Costar, Cambridge, Mass, U.S.A.). The cells are prepared in medium RPMI-1640 supplemented with penicillin (100 u/ml), streptomycin (100 μg/ml), 2 mM glutamine, 50 μM 2-mercaptoethanol (2-ME) and 20 mM HEPES. THF-γ2 in various concentrations in phosphate buffered saline (PBS), is added in 20 μl aliquots, while control cultures receive 20 μl PBS. The cell cultures are incubated for 20 h in a humidified incubator of 5% CO2 /95% air and 37° C.
1.1.2. Induction of IL-2. ConA (Concanavalin A, ConA, 3×crystalline, Bio-Makor, Ness-Ziona, Israel) is added to the wells in 1 ml fresh medium (as in 1.1.1 above) at suboptimal concentration (1-2.5 μ/ml). […]
1.1.3. […] After incubation of 48 h at 37° C./5% CO2, the proliferation is assessed by the MTT colorimetric assay (T. Mosmann, J. Immunol. Methods 65: 55-63, 1983). Results are expressed in units/ml calculated using a standard murine IL-2 preparation (according to S. Gillis et al., J. Immunol. 120: 2027, 1978).

[1] = test system: GM-CFC from mouse bone marrow; experiment: Effect on GM-CFC from mouse bone marrow; format: cell-based; parameters: key: +++: strong enhancement, as THF-γ2; ++ and +: medium and weak enhancement, lower than THF-γ2; ++ and +: medium and weak enhancement, lower than THF-γ2; --no activity; conditions: graded against THF-γ2; Example 1, section 1.2
Experimental: 1.2. Effect of THF-γ2 on GM-CFC From Mouse Bone Marrow. In this second bioassay, the effect of THF-γ2 and its analogs in the enhancement of the number of colonies of GM-CFC in the presence of growth factors is determined. 1.2.1. […] Tibia and femur were removed from BALB/c female mice (6-8 weeks old). The tip of the bone was cut and DMEM with 2.5% FCS was flushed into the bone using a 1 ml syringe with a 26 G needle. This procedure was repeated twice, the cells were then washed in medium and counted in the presence of trypan blue. 1.2.2 Preincubation with THF-γ2. Bone marrow cells suspension was prepared in DMEM with 2.5% FCS at a concentration of 15×10^6 /3.0 ml. THFγ2 diluted in DMEM was added in 20 μl aliquots, control cells received 20 μl DMEM. Cell suspensions in conical tissue culture tubes were incubated at 37° C./8% CO2 for 1 h. Cells were then collected, washed and counted in trypan blue. Cell suspensions were adjusted at 1×10^6 /ml. 1.2.3. GM-CFC assay. Bone marrow cells (4×10^5) are suspended in methylcellulose (0.8%), FCS (20%) and conditioned medium of 14FIL3 CB6 cell line (5%) in a total volume of 4 ml of DMEM. After vigorous mixing, the suspension is seeded into 30 mm diameter plates with the aid of a 3.0 ml syringe (21G needle, in triplicate). […] Colonies are counted using an inverted microscope at low magnification.

[2] = test system: murine cytomegalovirus (MCMV); conditions: MCMV-infected mice; cited from earlier work
[3] = test system: patients with reduced circulating T cells; conditions: 4 ng/kg/day i.m., 18 injections in 3 weeks; cited from earlier work
[4] = test system: viral infections of the herpes group; conditions: four patients, same protocol as the pilot study; cited from earlier work

Substance	IL-2: Enhancement of ConA induced IL2 production in mouse spleen cells (mouse spleen cells)	GM-CFC: Enhancement of the number of GMCFC from mouse bone marrow [1]	interferon synthesis and NK cytotoxicity [2]	side effects [3]	side effects [4]
Iodo-Tyr-Leu-Glu-Asp-Gly-Pro-Lys-Phe-Leu (Y(iodo)LEDGPKFL) [iodo-Y^-1 -THF-γ2]	++	-			
LEDGPKFL [THF-γ2, Leu-Glu-Asp-Gly-Pro-Lys-Phe-Leu]			did not affect	No side effects attributable to synthetic THF-γ2 were observed	no deleterious side effects were documented
